Test results reported in PubChem BioAssay (NCI).
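All cell lines were grown in 96-well plates and treated with compound for 48 hours. Definition used: TGI = concentration required for complete inhibition of growth.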

Legend:
Assay in all cases: NCI tumour cell line growth inhibition, 48 h
[1] = system: A549 NSCLC
[2] = system: CAKI-1 renal
[3] = system: COLO 205 colon
[4] = system: HOP-62 NSCLC
[5] = system: K-562 leukemia
[6] = system: KM12 colon
[7] = system: NCI-H460 lung
[8] = system: OVCAR-3 ovarian
[9] = system: PC-3 prostate
[10] = system: RXF 393 renal
[11] = system: SF-539 CNS
[12] = system: SK-MEL-28 melanoma
[13] = system: SK-MEL-5 melanoma
[14] = system: SNB-19 CNS
[15] = system: SNB-75 CNS
[16] = system: UACC-62 melanoma
[17] = system: CCRF-CEM leukemia
[18] = system: MOLT-4 leukemia
[19] = system: SF-295 CNS
[20] = system: MCF7 breast

Compound	TGI [1] [µM]	TGI [2] [µM]	TGI [3] [µM]	TGI [4] [µM]	TGI [5] [µM]	TGI [6] [µM]	TGI [7] [µM]	TGI [8] [µM]	TGI [9] [µM]	TGI [10] [µM]	TGI [11] [µM]	TGI [12] [µM]	TGI [13] [µM]	TGI [14] [µM]	TGI [15] [µM]	TGI [16] [µM]	TGI [17] [µM]	TGI [18] [µM]	TGI [19] [µM]	TGI [20] [µM]
Cc1cc(S(=O)(=O)NC2=NCCCN2)c(S)cc1Cl	53.9	> 100	> 100	> 100	75.9	> 100	> 100	> 100	> 100	> 100	> 100	> 100	32.4	> 100	> 100	90.3				
CCCCCCCCCCCCCCCCCCOCC(C[N+]1(C)CCC(O)CC1)OCC (stereo not given)	32.9	21.1	14.2	16.7	19.1			15.4			32.8	33.5		28.3	19.2	19.7	5.55	10.6	17.9	
O=C(Nc1ccc([N+](=O)[O-])cc1[N+](=O)[O-])C(=O)C(C(=O)c1ccc(Cl)c(Cl)c1)C1OC(=O)c2ccccc21 (stereo not given)	73.7	> 100	48.4	36.9	82	37		93.1		24.8				66.7	> 100	36	95	76.8	40.7	
CC(C)(C)[Si](C)(C)OCCc1ccccc1C1CC2(S(=O)(=O)c3ccccc3)ON1CC2S(=O)(=O)c1ccccc1 (stereo not given)	> 100		> 100	> 100	> 100	> 100	> 100	> 100		> 100	> 100	> 100	> 100	> 100	> 100	> 100	> 100	> 100	> 100	> 100
C=C1CCC2[C@](C)(CCC[C@]2(C)C(=O)O)[C@@H]1CCc1ccoc1 (stereo not given in full)	> 100	> 100	33	> 100	> 100	74.9	> 100	66	> 100	> 100	99.4	> 100	84.8	> 100	> 100	> 100	> 100	> 100	> 100	
CN(C(=S)Cc1ccc(Cl)c(Cl)c1)C1CCCC[C@@H]1N1CCCC1 (stereo not given in full)	> 100	> 100		> 100	> 100	> 100		> 100	> 100		> 100	31.6	33	> 100		34.1		> 100	36.2	
